Assay results from the CheMixHub viscosity set.

Assay: xn = mol fraction of the nth substance listed

CCNc1ccccc1 + CCC(=O)O
308.15 K, 101.33 kPa
Conditions	viscosity [mPa·s]
x2 = 0.1567	1.706
x2 = 0.2906	1.897
x2 = 0.4142	2.167
x2 = 0.5224	2.302
x2 = 0.6217	2.533
x2 = 0.7121	2.575
x2 = 0.7933	2.379
x2 = 0.8787	1.916
x2 = 0.9032	1.691
x2 = 0.9363	1.412
x2 = 0.9694	1.113

CCNc1ccccc1 + CCC(=O)c1ccccc1
303.15 K, 100 kPa
Conditions	viscosity [mPa·s]
x1 = 0.0789	1.524
x1 = 0.1541	1.537
x1 = 0.2249	1.55
x1 = 0.3002	1.565
x1 = 0.3862	1.581
x1 = 0.4651	1.598
x1 = 0.5244	1.612
x1 = 0.6049	1.631
x1 = 0.6891	1.653
x1 = 0.7354	1.666
x1 = 0.8005	1.683
x1 = 0.8523	1.699
x1 = 0.9099	1.716

CC(=O)O + CCC(C)=O
viscosity [mPa·s], 101 kPa
Conditions	x1 = 0.1006	x1 = 0.2003	x1 = 0.3011	x1 = 0.4019	x1 = 0.5031	x1 = 0.6006	x1 = 0.7023	x1 = 0.7985	x1 = 0.8986
298.15 K	0.4312	0.4737	0.5266	0.5832	0.6507	0.7259	0.8152	0.9085	1.013
308.15 K	0.3905	0.4255	0.4697	0.5173	0.573	0.6346	0.7132	0.7902	0.879
318.15 K	0.3521	0.3832	0.4196	0.4601	0.5058	0.559	0.6203	0.6845	0.7622

CCC(C)Br (stereo not drawn) + CCC(C)O
viscosity [mPa·s], 101.3 kPa
Conditions	x1 = 0.0514	x1 = 0.1041	x1 = 0.2027	x1 = 0.2985	x1 = 0.4321	x1 = 0.5027	x1 = 0.5839	x1 = 0.702	x1 = 0.8019	x1 = 0.9029
298.15 K	2.434	1.986	1.435	1.135	0.8991	0.8084	0.7285	0.6459	0.5996	0.5667
313.15 K	1.495	1.276	1.006	0.8366	0.6849	0.6292	0.5794	0.5282	0.4961	0.4774

CCNc1ccccc1 + CCC(C)O
viscosity [mPa·s], 101 kPa
Conditions	303.15 K	308.15 K
x1 = 0.0785	2.682	2.105
x1 = 0.1325	2.642	2.089
x1 = 0.1965	2.596	2.071
x1 = 0.2564	2.55	2.052
x1 = 0.3214	2.498	2.028
x1 = 0.3965	2.433	1.995
x1 = 0.4562	2.378	1.964
x1 = 0.5124	2.322	1.932
x1 = 0.5895	2.24	1.882
x1 = 0.6547	2.164	1.835
x1 = 0.7325	2.07	1.773
x1 = 0.8025	1.983	1.714
x1 = 0.8745	1.894	1.653

CCOC=O + CCC(C)O
viscosity [mPa·s], 100 kPa
Conditions	x1 = 0.0818	x1 = 0.1617	x1 = 0.2415	x1 = 0.3497	x1 = 0.4398	x1 = 0.5611	x1 = 0.65	x1 = 0.7399	x1 = 0.85	x1 = 0.9396
293.15 K	2.41	1.74	1.35	1.04	0.86	0.69	0.59	0.53	0.48	0.44
298.15 K	2.03	1.51	1.2	0.94	0.78	0.62	0.55	0.5	0.45	0.42
303.15 K	1.74	1.32	1.07	0.84	0.71	0.58	0.51	0.47	0.43	0.4
308.15 K	1.5	1.17	0.96	0.77	0.66	0.55	0.49	0.45	0.41	0.38
313.15 K	1.3	1.02	0.85	0.71	0.61	0.51	0.46	0.42	0.39	0.36
318.15 K	1.13	0.9	0.77	0.65	0.57	0.48	0.43	0.39	0.36	0.34
323.15 K	1	0.82	0.72	0.61	0.55	0.47	0.42	0.38	0.35	0.32

CCOC=O + CCCC(C)O
viscosity [mPa·s], 100 kPa
Conditions	x1 = 0.0826	x1 = 0.1603	x1 = 0.2396	x1 = 0.3504	x1 = 0.4402	x1 = 0.5595	x1 = 0.6497	x1 = 0.74	x1 = 0.8501	x1 = 0.9381
293.15 K	2.84	2.16	1.73	1.34	1.12	0.91	0.78	0.65	0.52	0.45
298.15 K	2.5	1.96	1.57	1.23	1.02	0.85	0.73	0.6	0.49	0.43
303.15 K	2.2	1.74	1.4	1.11	0.93	0.77	0.67	0.57	0.46	0.41
308.15 K	1.9	1.53	1.23	0.98	0.84	0.7	0.6	0.52	0.43	0.39
313.15 K	1.6	1.3	1.05	0.86	0.75	0.63	0.54	0.46	0.4	0.36
318.15 K	1.32	1.06	0.89	0.73	0.64	0.54	0.47	0.41	0.36	0.33
323.15 K	1.06	0.84	0.7	0.59	0.53	0.45	0.4	0.36	0.33	0.31

ClCCl + CCCCC
298.15 K, 101 kPa
Conditions	viscosity [mPa·s]
x2 = 0.05	0.403
x2 = 0.1	0.384
x2 = 0.1023	0.379
x2 = 0.15	0.366
x2 = 0.1992	0.345
x2 = 0.2	0.348
x2 = 0.25	0.332
x2 = 0.3	0.317
x2 = 0.3043	0.314
x2 = 0.35	0.303
x2 = 0.4	0.29
x2 = 0.4032	0.29
x2 = 0.45	0.28
x2 = 0.5	0.27
x2 = 0.5097	0.269
x2 = 0.55	0.262
x2 = 0.6	0.255
x2 = 0.603	0.254
x2 = 0.65	0.248
x2 = 0.6984	0.242
x2 = 0.7	0.242
x2 = 0.75	0.237
x2 = 0.7991	0.231
x2 = 0.8	0.232
x2 = 0.85	0.227
x2 = 0.8858	0.224
x2 = 0.9	0.222
x2 = 0.9189	0.221
x2 = 0.95	0.218

ClCCl + CCCCCC
298 K, 101 kPa
Conditions	viscosity [mPa·s]
x2 = 0.1331	0.386
x2 = 0.2381	0.367
x2 = 0.3208	0.354
x2 = 0.3873	0.346
x2 = 0.4407	0.34
x2 = 0.4419	0.34
x2 = 0.4746	0.335
x2 = 0.4862	0.335
x2 = 0.5144	0.333
x2 = 0.5244	0.332
x2 = 0.5599	0.329
x2 = 0.6138	0.324
x2 = 0.6791	0.32
x2 = 0.7601	0.314
x2 = 0.8633	0.308

C[Si]1(C)O[Si](C)(C)O[Si](C)(C)O[Si](C)(C)O1 + CCCCCCCCCC
viscosity [mPa·s], 103 kPa
Conditions	298.15 K	308.15 K	318.15 K
x1 = 0.05	0.844	0.733	0.645
x1 = 0.1	0.867	0.753	0.664
x1 = 0.1501	0.899	0.778	0.683
x1 = 0.2	0.931	0.801	0.703
x1 = 0.25	0.965	0.831	0.725
x1 = 0.3	1.007	0.865	0.753
x1 = 0.35	1.047	0.895	0.778
x1 = 0.3999	1.086	0.93	0.802
x1 = 0.45	1.134	0.964	0.833
x1 = 0.5	1.183	1.006	0.867
x1 = 0.5501	1.232	1.048	0.909
x1 = 0.6	1.292	1.097	0.943
x1 = 0.65	1.358	1.15	0.987
x1 = 0.6999	1.431	1.209	1.035
x1 = 0.75	1.511	1.273	1.087
x1 = 0.8	1.6	1.345	1.145
x1 = 0.85	1.699	1.423	1.208
x1 = 0.9	1.811	1.511	1.278
x1 = 0.95	1.936	1.61	1.356
